Experimental data published in patent US20230079045A1 (priority 2019, published 2023).

Columns and labels:
Type in all cases: cell-based, influenza virus
IFVA/Mal/302/54 = assay: cytopathic effect (CPE) antiviral test in MDCK cells, IFVA/Mal/302/54; settings: unidentified influenza virus, MDCK, 120 h, read-out: EC50(IFVA/Mal/302/54), MDCK cells, CPE method, CCK-8 cell viability, 5 days
IFVA/Weiss/43 = assay: cytopathic effect (CPE) antiviral test in MDCK cells, IFVA/Weiss/43; settings: unidentified influenza virus, MDCK, 120 h, read-out: EC50(IFVA/Weiss/43), MDCK cells, CPE method, CCK-8 cell viability, 5 days
IFV A/PR/8/34 = assay: cytopathic effect (CPE) antiviral test in MDCK cells, IFV A/PR/8/34; settings: unidentified influenza virus, PR/8, MDCK, 120 h, read-out: EC50(IFV A/PR/8/34)

Structure (SMILES)	EC50 (IFVA/Mal/302/54)	EC50 (IFVA/Weiss/43)	EC50 (IFV A/PR/8/34)
O=C(Nc1ccc2oc(-c3ccnc(C(=O)N4CCN(C(c5ccccc5)c5nnn(C(F)F)n5)CC4)c3)nc2c1)C1CCC1 (racemic) [Compound 67, (R/S)—N-(2-(2-(4-((2-(difluoromethyl)-2H-tetrazol-5-yl)(phenyl)methyl)piperazine-1-carbonyl)pyridin-4-yl)benzo[d]oxazol-5-yl)cyclobutanecarboxamide]	0.021 µM	0.012 µM	0.017 µM
O=C(c1cc(-c2nc3cc(-c4cnsc4)ccc3o2)ccn1)N1CCN(C(c2ccccc2)c2nnn(C(F)F)n2)CC1 (racemic) [Compound 101, (R/S)-(4-((2-(difluoromethyl)-2H-tetrazol-5-yl)(phenyl)methyl)piperazin-1-yl)(4-(5-(isothiazol-4-yl)benzo[d]oxazol-2-yl)pyridin-2-yl)methanone]	0.006 µM	0.004 µM	0.027 µM
O=C(Nc1ccc2nc(-c3ccnc(C(=O)N4CCN(C(c5ccccc5)c5nnn(C(F)F)n5)CC4)c3)oc2c1)C1CC1 (racemic) [Compound 104, (R/S)—N-(2-(2-(4-((2-(difluoromethyl)-2H-tetrazol-5-yl)(phenyl)methyl)piperazine-1-carbonyl)pyridin-4-yl)benzo[d]oxazol-6-yl)cyclopropanecarboxamide]	0.016 µM	0.012 µM	0.059 µM
Cn1cc(-c2ccc3oc(-c4ccnc(C(=O)N5CCN(C(c6ccccc6)c6nnn(C(F)F)n6)CC5)c4)nc3c2)cn1 (racemic) [Compound 105, (R/S)-(4-((2-(difluoromethyl)-2H-tetrazol-5-yl)(phenyl)methyl)piperazin-1-yl)(4-(5-(1-methyl-1H-pyrazol-4-yl)benzo[d]oxazol-2-yl)pyridin-2-yl)methanone]	0.009 µM	0.007 µM	0.011 µM
Cn1ccnc1-c1ccc2nc(-c3ccnc(C(=O)N4CCN(C(c5ccccc5)c5nnn(C(F)F)n5)CC4)c3)oc2c1 (racemic) [Compound 107, (R/S)-(4-((2-(difluoromethyl)-2H-tetrazol-5-yl)(phenyl)methyl)piperazin-1-yl)(4-(6-(1-methyl-1H-imidazol-2-yl)benzo[d]oxazol-2-yl)pyridin-2-yl)methanone]	0.006 µM	0.002 µM	0.009 µM
CC(C)(F)C(=O)Nc1ccc2oc(-c3ccnc(C(=O)N4CCN(C(c5ccccc5)c5nnn(C(F)F)n5)CC4)c3)nc2c1 (racemic) [Compound 108, (R/S)—N-(2-(2-(4-((2-(difluoromethyl)-2H-tetrazol-5-yl)(phenyl)methyl)piperazine-1-carbonyl)pyridin-4-yl)benzo[d]oxazol-5-yl)-2-fluoro-2-methylpropanamide]	0.006 µM	0.002 µM	0.023 µM
[2H]C([2H])([2H])C(C(=O)Nc1ccc2oc(-c3ccnc(C(=O)N4CCN(C(c5ccccc5)c5nnn(C(F)F)n5)CC4)c3)nc2c1)C([2H])([2H])[2H] (racemic) [Compound 109, (R/S)—N-(2-(2-(4-((2-(difluoromethyl)-2H-tetrazol-5-yl)(phenyl)methyl)piperazine-1-carbonyl)pyridin-4-yl)benzo[d]oxazol-5-yl)-2-(methyl-d3)propanamide]	0.011 µM	0.006 µM	0.012 µM
O=C(c1cc(-c2nc3cc(-c4cnccn4)ccc3o2)ccn1)N1CCN(C(c2ccccc2)c2nnn(C(F)F)n2)CC1 (racemic) [Compound 112, (R/S)-(4-((2-(difluoromethyl)-2H-tetrazol-5-yl)(phenyl)methyl)piperazin-1-yl)(4-(5-(pyrazin-2-yl)benzo[d]oxazol-2-yl)pyridin-2-yl)methanone]	0.008 µM	0.011 µM	0.036 µM
CC(=O)N(C)c1ccc2oc(-c3ccnc(C(=O)N4CCN(C(c5ccccc5)c5nnn(C(F)F)n5)CC4)c3)nc2c1 (racemic) [Compound 113, (R/S)—N-(2-(2-(4-((2-(difluoromethyl)-2H-tetrazol-5-yl)(phenyl)methyl)piperazine-1-carbonyl)pyridin-4-yl)benzo[d]oxazol-5-yl)-N-methylacetamide]	0.018 µM	0.019 µM	0.02 µM
